# Test results reported in US20170320837A1, “METHOD FOR TREATING INFLAMMATORY DISORDERS” (Synta Pharmaceuticals Corp., priority 2006, published 2017).
# “Also recorded” adds a separate entry of the source.
# Key:
# GR (human recombinant) = target: T1, GR (human recombinant) (Homo sapiens, UniProt P04150); assay: GR competitive assay, fluorescence polarization with Fluormone GS1; assay type: binding; conditions: tested up to 10 uM
# T1 construct: purchased Invitrogen P2816
# T1 sequence (P04150 1-777): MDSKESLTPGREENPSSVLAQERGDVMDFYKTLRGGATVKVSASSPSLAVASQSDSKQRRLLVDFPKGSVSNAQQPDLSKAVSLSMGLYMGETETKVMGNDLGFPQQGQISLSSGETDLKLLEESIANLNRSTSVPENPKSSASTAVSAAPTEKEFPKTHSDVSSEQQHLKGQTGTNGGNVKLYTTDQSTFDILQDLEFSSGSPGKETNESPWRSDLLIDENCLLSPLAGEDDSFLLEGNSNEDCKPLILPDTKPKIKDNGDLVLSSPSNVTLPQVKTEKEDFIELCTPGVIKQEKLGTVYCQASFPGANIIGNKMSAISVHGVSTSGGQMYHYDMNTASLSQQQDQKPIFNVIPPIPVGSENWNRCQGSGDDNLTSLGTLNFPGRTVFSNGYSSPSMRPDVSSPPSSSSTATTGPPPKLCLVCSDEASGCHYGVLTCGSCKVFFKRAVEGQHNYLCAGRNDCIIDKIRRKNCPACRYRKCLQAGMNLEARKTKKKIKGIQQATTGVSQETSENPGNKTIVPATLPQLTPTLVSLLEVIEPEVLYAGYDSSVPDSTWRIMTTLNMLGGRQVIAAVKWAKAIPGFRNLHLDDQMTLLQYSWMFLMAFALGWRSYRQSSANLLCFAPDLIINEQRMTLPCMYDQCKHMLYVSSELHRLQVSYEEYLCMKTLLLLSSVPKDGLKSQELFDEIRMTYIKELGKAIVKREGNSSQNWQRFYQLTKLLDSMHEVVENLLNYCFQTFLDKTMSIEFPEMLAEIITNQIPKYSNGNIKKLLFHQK
# Experimental: To determine whether the compounds of the invention bind directly to the glucocorticoid receptor, GR competitive assay was performed using a kit from Invitrogen (Cat #P2816). GR (human recombinant) was added to a fluorescent glucocorticoid (Fluormone™ GS1) ligand with a test compound at various concentrations (a serial dilution of the test compound was done on a 96-well plate) and incubated for 2-4 hours in the dark. […] The shift in polarization value in the presence of a test compound was used to determine relative affinity of test compounds for glucocorticoid receptors. The buffer plus Fluormone™ GS1 and glucocorticoid receptor in the absent of s test compound was used as negative control presenting 0% competition. […] The IC50 was calculated based on the inhibition rate of binding activity of the testing compound.
# glucocorticoid receptors = target: T2, glucocorticoid receptors (Homo sapiens, UniProt P04150); assay: Competitive binding assay with tritium labeled dexamethason in Hela S3 cells (legend of FIG. 3)
# T2 construct: endogenous in cells; host or cells: HeLa S3
# T2 sequence (P04150 1-777): T1 sequence (P04150 1-777)
# human PBMCs = assay: Production of inflammatory cytokines in stimulated human PBMCs; assay type: cell-based; conditions: IFN-γ primed PBMCs stimulated with LPS or SAC, 16-18 hrs
# Experimental: Human PBMC were isolated using Ficoll 400 and diatrizoate sodium (density 1.077 g/ml) solution and purified with RosetteSep (StemCell Technologies). The PBMCs were primed with human IFN-γ (800 U/ml, Pierce Biotechnology #R-IFNG-50), seeded at 0.5×10^6/100 μL/well in 96-well U-bottom plate with culture medium (RPMI 1640, 10% FBS, 1% Pen/Strep), and incubated in 37° C. for overnight. […] About 180 ul/well of supernatant was collected and measured using ELISA kit or Bio-plex (Bio-Rad) to determine the levels of cytokine production. The cell survival was determined using Cell Counting Kit-8 (Dojindo Molecular Technologies, Inc.). […]
# glucocorticoid receptor [1] = assay: Glucocorticoid receptor levels in rat PBMCs, immunoblot; assay type: cell-based; conditions: rat PBMCs, 0, 1, 5, 25, or 100 nM, 16 hours
# Experimental: (§1) The whole blood samples from healthy human volunteer and male SD rat were collected and the PBMCs were isolated immediately as follows. 5 ml of whole blood was diluted with an equal volume of sterile 1× PBS. The diluted blood was overlayed carefully into a sterile centrifuge tube without disturbing the bottom layer that containing 5 ml of Ficoll-paque plus density gradient solution. The layered blood was centrifuged at 1500×g for 30 minutes at room temperature. The middle thin layer containing PBMCs was carefully removed, transferred to another sterile centrifuge tube, and washed twice with PBS to remove […]. Isolated rat and human PBMCs were cultured in 10% fetal bovine serum/DMEM.
# (§2) The rat and human PBMCs were treated with DMSO (control), Compound 226, Compound 287, or 17-DMAG at concentrations of 0, 1, 5, 25, or 100 nM (in DMSO) for 16 hours. The cells were then collected and rinsed in ice-cold PBS and stored in liquid nitrogen until further analysis.
# (§3) PBMC were prepared in Western lysis buffer (10 mmol/L HEPES, 42 mmol/L KCl, 5 mmol/L MgCl2, 0.1 mmol/L EDTA, 0.1 mmol/L EGTA, 1 mmol/L DTT, 1% Triton X-100, freshly supplemented with 1× protease inhibitor cocktail from Pierce, Rockford, Ill.). Lysate protein concentrations were quantified by bicinchoninic acid assay (Pierce) and normalized. Equal amounts of protein were loaded onto 10% NuPAGE Bis-Tris Gels (Invitrogen) and subsequently transferred onto polyvinylidene difluoride membranes. The membranes were blocked in 5% milk in TBST. Primary antibody of glucocorticod receptor from Santa Cruz Biotechnology, Inc. was added and incubated at room temperature for 1 hour with shaking. The blots were washed extensively in TBST before secondary antibodies were added for overnight incubation at 4° C. with gentle shaking. The blots were again washed extensively and developed with SuperSignal West Femto substrate (Pierce). The immunoblot analysis was performed to measure the level of total GRs by Quantity One software from Bio-Rad.
# glucocorticoid receptor [2] = assay: Glucocorticoid receptor levels in human PBMCs, immunoblot (Example 114); assay type: cell-based; conditions: human PBMCs, 0, 1, 5, 25, or 100 nM, 16 hours
# Experimental: as §1, §2, §3
# glucocorticoid receptor [3] = assay: Glucocorticoid receptor levels in human PBMCs, renal cells and cancer cell lines, immunoblot (Example 115); assay type: cell-based
# Experimental: Normal human renal proximal tubule epithelial cells and tumor cell lines of MV-4-11, Kasumi-1, and Hela were obtained from Cambrex Bioproducts and American Type Culture Collection, respectively. Cells were cultured with 10% fetal bovine serum/DMEM.
# The whole blood samples from healthy human volunteer were collected and the PBMCs were isolated immediately as described in Example 116. Isolated human PBMCs were cultured in 10% fetal bovine serum/DMEM.
# as §2, with “Human PBMCs, kasumi-1, My-4-11, Hela,” for “The rat”, “renal proximal tubule epithelial cells” for “PBMCs”, “287,” for “287, or”, “0,” for “0, 1,”
# as §3, with “PBMC, renal and tumor cell pellets” for “PBMC”, “0.1. mmol/LEGTA,” for “0.1 mmol/L EGTA,”, “glucocorticoid” for “glucocorticod”, “(Pierce).” for “(Pierce). The immunoblot analysis was performed to measure the level of total GRs by Quantity One software from Bio-Rad.”
# glucocorticoid receptor [4] = assay: Glucocorticoid receptor levels in PBMCs of rats after four days of intravenous dosing, immunoblot; assay type: in vivo, Sprague-Dawley (SD) rats
# Experimental: The test compounds were administered daily intravenously via tail vein for four days. […] All rats were sacrificed at the study day 5. About 1-2 mL of blood samples were collected per animal. The blood samples were then pulled together as a group for PBMC isolation.
smiles,measurement,setting,value
"CC(C)c1cc(-c2nnc(O)n2-c2ccc3c(ccn3C)c2)c(O)cc1O [Compound 226, 3-(2,4-dihydroxy-5-isopropyl-phenyl)-4-(1-methyl-indol-5-yl)-5-hydroxy-[1,2,4]triazole]",IC50,GR (human recombinant),> 10 µM
same,displacement of tritium labeled dexamethason,glucocorticoid receptors,did not displace the tritium labeled dexamethason
same,inhibition of the production of proinflammatory cytokines,human PBMCs,more broadly inhibits the production of proinflammatory cytokines than dexamethasone or 17-DMAG
same,expression of glucocorticoid receptors,glucocorticoid receptor [1],dose dependent decrease; also recorded: decreased the expression of glucocorticoid receptor in a dose dependent manner
same,expression of glucocorticoid receptors,glucocorticoid receptor [2],dose dependent decrease; also recorded: decreased the expression of glucocorticoid receptor in a dose dependent manner
same,"suppression of glucocorticoid receptors, cancer cells compared with normal cells",glucocorticoid receptor [3],more pronounced in cancer cell than in normal cells
same,expression of glucocorticoid receptors,"glucocorticoid receptor [3]; HeLa cells, 0, 5, 25, or 100 nM, 16 hrs",dose dependent decrease
same,expression of glucocorticoid receptors,"glucocorticoid receptor [3]; Kasumi-1 AML cancer cells, 0, 5, 25, or 100 nM, 16 hrs",dose dependent decrease
same,expression of glucocorticoid receptors,"glucocorticoid receptor [3]; MV-4-11 AML cancer cells, 0, 5, 25, or 100 nM, 16 hrs",dose dependent decrease
same,expression of glucocorticoid receptors,glucocorticoid receptor [3]; cancer cells as well as normal PBMCs and renal cells,suppress the expression of glucocorticoid receptors
same,expression of glucocorticoid receptors,"glucocorticoid receptor [3]; human PBMCs, 0, 5, 25, or 100 nM, 16 hrs",dose dependent decrease
same,expression of glucocorticoid receptors,"glucocorticoid receptor [3]; human renal cells, 0, 5, 25, or 100 nM, 16 hrs",dose dependent decrease
same,size of the decrease of GR expression compared with the other treatments,glucocorticoid receptor [4]; 50 mg/kg daily intravenously for four days,most significant
same,expression of glucocorticoid receptor (GR) in isolated PBMC compared with vehicle,"glucocorticoid receptor [4]; daily intravenously for four days, 17-DMAG 6 mg/kg, Paclitaxel 5 mg/kg, Compound 264 80 mg/kg, Compound 226 50 mg/kg",decreased
